Source: ChEMBL document CHEMBL4382265, “(Pyrrolo-pyridin-5-yl)benzamides: BBB permeable monoamine oxidase B inhibitors with neuroprotective effect on cortical neurons” (Eur J Med Chem, 2019)
pIC50, pKi: −log10 of the molar value. Converted amounts (≈) assume the structure as drawn. One block for each molecule: values may come before it. The source made the active and inactive calls. No cut-off for these calls is given here.

Columns and labels:
[1] = biological target: T1, Amine oxidase [flavin-containing] B (Homo sapiens, UniProt P27338); test: Inhibition of human recombinant MAO-B expressed in baculovirus infected BTI-TN-5B1-4 insect cells using p-tyramine as substrate preincubated for 15 mins and measured after 45 mins by Cheng-Prusoff equation analysis
T1 sequence (P27338 whole entry): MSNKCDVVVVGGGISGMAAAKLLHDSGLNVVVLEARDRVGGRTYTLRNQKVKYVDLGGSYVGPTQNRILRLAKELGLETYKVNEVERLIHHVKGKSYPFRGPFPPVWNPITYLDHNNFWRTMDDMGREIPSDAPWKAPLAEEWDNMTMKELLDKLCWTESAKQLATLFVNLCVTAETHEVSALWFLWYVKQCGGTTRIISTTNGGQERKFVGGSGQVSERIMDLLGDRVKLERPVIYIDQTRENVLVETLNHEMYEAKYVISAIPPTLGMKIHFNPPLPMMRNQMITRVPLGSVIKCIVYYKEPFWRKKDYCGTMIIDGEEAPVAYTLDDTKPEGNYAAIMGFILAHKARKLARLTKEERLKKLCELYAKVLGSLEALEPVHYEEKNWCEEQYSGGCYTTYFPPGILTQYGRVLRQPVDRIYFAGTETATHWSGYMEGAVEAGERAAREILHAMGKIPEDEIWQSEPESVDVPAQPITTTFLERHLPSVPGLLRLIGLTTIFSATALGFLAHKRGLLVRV

[2] = biological target: T2, Amine oxidase [flavin-containing] A (Homo sapiens, UniProt P21397); test: biochemical
T2 sequence (P21397 whole entry): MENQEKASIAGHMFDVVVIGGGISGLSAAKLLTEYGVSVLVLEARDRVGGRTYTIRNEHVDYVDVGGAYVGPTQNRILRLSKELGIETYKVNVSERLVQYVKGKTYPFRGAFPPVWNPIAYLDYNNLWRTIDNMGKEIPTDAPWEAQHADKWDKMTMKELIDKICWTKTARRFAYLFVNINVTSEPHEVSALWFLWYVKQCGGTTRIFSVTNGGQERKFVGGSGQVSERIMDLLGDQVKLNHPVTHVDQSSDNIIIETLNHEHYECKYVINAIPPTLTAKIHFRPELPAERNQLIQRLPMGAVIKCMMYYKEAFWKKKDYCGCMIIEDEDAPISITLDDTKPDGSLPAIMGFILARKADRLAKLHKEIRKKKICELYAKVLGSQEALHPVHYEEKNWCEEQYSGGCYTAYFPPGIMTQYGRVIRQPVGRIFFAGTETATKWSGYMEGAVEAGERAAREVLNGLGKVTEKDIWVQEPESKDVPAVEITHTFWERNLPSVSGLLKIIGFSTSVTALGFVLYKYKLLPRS
Description: Inhibition of human recombinant MAO-A expressed in baculovirus infected BTI-TN-5B1-4 insect cells using p-tyramine as substrate preincubated for 15 mins and measured after 45 mins by resorufin-based fluorescence assay

[3] = physchem; conditions: buffer, pH 7.4
[4] = Kinetic aqueous solubility of compound at 500 uM at pH 2 after 90 mins by UV-vis spectrophotometric analysis; type: physicochemical; conditions: buffer; for log(Kinetic_solubility): pH 2, 1.5 h, 500 µM; for solubility kinetic at 1.5 h, 500 µM: pH 2, read-out: Kinetic_solubility
[5] = physchem; conditions: n-octanol/water, pH 7.4
[6] = Selectivity ratio of IC50 for Sprague-Dawley rat liver MAO-B to human recombinant MAO-B expressed in baculovirus infected BTI-TN-5B1-4 insect cells
[7] = in vitro; set-up: dose or concentration left out as unconfirmed; conditions: PAMPA, pH 7.4
Description: (§1) Effective permeability of the compound in prisma HT buffer at 10 mM at pH 7.4 after 4 hrs by PAMPA

[8] = pampa, pH 7.4, 4 h, 10000 µM
Description: as §1

[9] = Kinetic aqueous solubility of compound at 500 uM at pH 5.5 after 90 mins by UV-vis spectrophotometric analysis; type: physicochemical; conditions: buffer; for log(Kinetic_solubility): pH 5.5, 1.5 h, 500 µM; for solubility kinetic at 1.5 h, 500 µM: pH 5.5, read-out: Kinetic_solubility
[10] = biological target: T1, Amine oxidase [flavin-containing] B; test: Reversible inhibition of human recombinant MAO-B expressed in baculovirus infected BTI-TN-5B1-4 insect cells at IC80 using p-tyramine as substrate incubated for 20 mins followed by increase in substrate concentration up to 1 mM and measured after 300 mins by fluorescence assay
[11] = species: Homo sapiens; test: Selectivity index, ratio of IC50 for human recombinant MAO-A expressed in baculovirus infected BTI-TN-5B1-4 insect cells to IC50 for human recombinant MAO-B expressed in baculovirus infected BTI-TN-5B1-4 insect cells
[12] = buffer, pH 7.4, 1.5 h, 500 µM
[13] = biological target: T3, Amine oxidase [flavin-containing] A (Rattus norvegicus, UniProt P21396)
T3 sequence (P21396 whole entry): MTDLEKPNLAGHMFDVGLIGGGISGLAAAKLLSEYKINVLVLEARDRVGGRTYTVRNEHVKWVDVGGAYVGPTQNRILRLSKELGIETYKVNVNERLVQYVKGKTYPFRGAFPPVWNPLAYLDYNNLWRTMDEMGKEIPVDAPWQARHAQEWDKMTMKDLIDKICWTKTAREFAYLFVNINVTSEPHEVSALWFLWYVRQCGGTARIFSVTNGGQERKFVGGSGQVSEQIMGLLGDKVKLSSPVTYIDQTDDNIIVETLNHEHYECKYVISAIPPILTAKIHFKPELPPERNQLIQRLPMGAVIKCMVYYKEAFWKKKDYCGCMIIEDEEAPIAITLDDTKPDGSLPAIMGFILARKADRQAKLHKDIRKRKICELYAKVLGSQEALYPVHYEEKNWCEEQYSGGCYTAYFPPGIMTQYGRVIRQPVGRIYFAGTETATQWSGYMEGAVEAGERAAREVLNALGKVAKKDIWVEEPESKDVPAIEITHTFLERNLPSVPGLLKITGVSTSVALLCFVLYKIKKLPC
Description: Inhibition of Sprague-Dawley rat liver MAO-A using p-tyramine as substrate preincubated for 15 mins and measured after 45 mins by resorufin-based fluorescence assay

[14] = biological target: T4, Amine oxidase [flavin-containing] B (Rattus norvegicus, UniProt P19643)
T4 sequence (P19643 whole entry): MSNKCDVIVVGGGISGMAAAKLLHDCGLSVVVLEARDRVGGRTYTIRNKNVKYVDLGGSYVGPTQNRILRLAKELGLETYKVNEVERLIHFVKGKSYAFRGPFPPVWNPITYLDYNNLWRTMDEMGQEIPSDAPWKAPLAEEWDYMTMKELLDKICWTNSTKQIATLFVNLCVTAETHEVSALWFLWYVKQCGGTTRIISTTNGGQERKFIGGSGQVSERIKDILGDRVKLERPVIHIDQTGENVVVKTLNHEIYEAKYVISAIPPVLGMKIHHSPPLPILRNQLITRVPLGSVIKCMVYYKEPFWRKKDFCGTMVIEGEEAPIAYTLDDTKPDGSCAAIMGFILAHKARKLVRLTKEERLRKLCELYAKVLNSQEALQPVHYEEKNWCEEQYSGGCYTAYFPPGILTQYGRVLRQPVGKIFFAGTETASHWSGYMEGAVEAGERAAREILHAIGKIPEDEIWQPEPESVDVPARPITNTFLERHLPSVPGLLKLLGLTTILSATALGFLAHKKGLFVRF
Description: Inhibition of Sprague-Dawley rat liver MAO-B using p-tyramine as substrate preincubated for 15 mins and measured after 45 mins by resorufin-based fluorescence assay

[15] = tested on: Cortical neurone; test: Neuroprotective activity in rat primary cortical neurons neurovascular unit model assessed as increase in survival at 150 to 300 nM after 120 hrs in presence of HBMEC relative to untreated control; type: functional, cell-based
[16] = tested on: Cortical neurone; test: Neuroprotective activity in rat primary cortical neurons neurovascular unit model assessed as induction of neurite network outgrowth at 150 to 300 nM after 120 hrs in presence of HBMEC relative to untreated control; type: functional, cell-based
[17] = biological target: T1, Amine oxidase [flavin-containing] B; test: biochemical; type: cell-based, BTI-TN-5B1-4
Description: Inhibition of human recombinant MAO-B expressed in baculovirus infected BTI-TN-5B1-4 insect cells using p-tyramine as substrate preincubated for 15 mins and measured after 45 mins by resorufin-based fluorescence assay

[18] = tested on: Cortical neurone; test: Neuroprotective activity in rat primary cortical neurons neurovascular unit model assessed as induction of neurite network outgrowth at 1 pM to 10 nM after 120 hrs in presence of HBMEC relative to untreated control; type: functional, cell-based
[19] = tested on: Cortical neurone; test: Neuroprotective activity in rat primary cortical neurons assessed as increase in survival at 1 nM after 120 hrs relative to untreated control; type: functional
[20] = tested on: Cortical neurone; test: Neuroprotective activity in rat primary cortical neurons assessed as induction of neurite network outgrowth at 10 to 100 nM after 120 hrs; type: functional, cell-based
[21] = tested on: Cortical neurone; test: Neuroprotective activity in rat primary cortical neurons neurovascular unit model assessed as increase in survival at 1 pM to 10 nM after 120 hrs in presence of HBMEC relative to untreated control; type: functional, cell-based
[22] = tested on: Cortical neurone; test: Neuroprotective activity in rat primary cortical neurons assessed as induction of neurite network outgrowth at 1 to 10 pM after 120 hrs; type: functional, cell-based
[23] = tested on: Cortical neurone; test: Neuroprotective activity in rat primary cortical neurons assessed as increase in survival at 100 nM after 120 hrs relative to untreated control; type: functional
[24] = tested on: Cortical neurone; test: Neuroprotective activity in rat primary cortical neurons at 0.1 to 1 nM after 120 hrs; type: functional, cell-based

- pKi [1]: 6.41
SMILES: O=C(Cc1ccc(Cl)c(Cl)c1)Nc1ccc2[nH]ccc2c1

- pIC50 [2]: < 5.00
- solubility kinetic at 1.5 h, 500 µM [3]: 119 µM (≈ 34.5 µg/mL)
- log(Kinetic_solubility) [4]: -3.33
- solubility kinetic at 1.5 h, 500 µM [4]: 501 µM (≈ 145 µg/mL)
- logD at 1.5 h [5]: 2.32
- pKi [1]: 8.84
- Papp at 4 h [7]: 110 ×10⁻⁶ cm/s
- log(permeability) [8]: -3.96
- log(Kinetic_solubility) [9]: -3.96
- solubility kinetic at 1.5 h, 500 µM [9]: 111 µM (≈ 32.1 µg/mL)
- inhibition (INH) [10]: Active
- log(Kinetic_solubility) [12]: -3.92
SMILES: O=C(Nc1ccc2[nH]ccc2n1)c1ccc(F)c(Cl)c1
- Ratio IC50 [6]: 1.1
- Ratio IC50 [11]: > 3060

- pIC50 [2]: < 5.00
- pKi [1]: 7.50
- pIC50 [13]: < 5.00
SMILES: O=C(Nc1cc2cc[nH]c2cn1)c1ccc(F)c(Cl)c1
- Ratio IC50 [6]: 1.1
- Ratio IC50 [11]: > 138

- pKi [1]: 5.94
SMILES: O=C(Nc1ccc2[nH]ncc2c1)c1cccc(Cl)c1Cl

- pIC50 [14]: 5.89
- pKi [1]: 6.91
SMILES: O=C(Nc1cc2cc[nH]c2cn1)c1ccc(F)c(F)c1
- Ratio IC50 [6]: 1.1
- Ratio IC50 [11]: > 36

SMILES: C[C@]12CC[C@@H]3c4ccc(O)cc4CC[C@H]3[C@@H]1CC[C@@H]2O
- Activity [15]: Active
- Activity [16]: Active

- pIC50 [14]: 7.83
- pIC50 [13]: 5.11
- pIC50 [17]: 8.23
SMILES: CC(=O)N[C@H]1CC(=O)N(c2ccc(OCc3cccc(F)c3)cc2)C1 [SEMBRAGILINE]
- Ratio IC50 [11]: 653

- pKi [1]: 5.84
SMILES: O=C(Nc1ccc2[nH]ncc2c1)c1c(F)cccc1Cl

- pKi [1]: 8.26
SMILES: O=C(Nc1ccc2[nH]ncc2c1)c1ccc(Cl)c(Cl)c1

- pIC50 [2]: < 5.00
- solubility kinetic at 1.5 h, 500 µM [3]: 65.1 µM (≈ 19.9 µg/mL)
- log(Kinetic_solubility) [4]: -3.37
- solubility kinetic at 1.5 h, 500 µM [4]: 426 µM (≈ 130 µg/mL)
- logD at 1.5 h [5]: 3.04
- pKi [1]: 7.89
- pIC50 [17]: 7.54
- Papp at 4 h [7]: 111 ×10⁻⁶ cm/s
- log(permeability) [8]: -3.96
- log(Kinetic_solubility) [9]: -4.16
- solubility kinetic at 1.5 h, 500 µM [9]: 68.8 µM (≈ 21.1 µg/mL)
- log(Kinetic_solubility) [12]: -4.19
SMILES: O=C(Nc1cc2cc[nH]c2cn1)c1ccc(Cl)c(Cl)c1
- Ratio IC50 [6]: 1.1
- Ratio IC50 [11]: > 346

- pIC50 [2]: < 5.00
- pKi [1]: 7.69
SMILES: O=C(Nc1ccc2[nH]ccc2n1)c1ccc(F)c(F)c1
- Ratio IC50 [6]: 1.1
- Ratio IC50 [11]: > 217

- pIC50 [2]: < 5.00
- solubility kinetic at 1.5 h, 500 µM [3]: 93.8 µM (≈ 27.2 µg/mL)
- log(Kinetic_solubility) [4]: -3.41
- solubility kinetic at 1.5 h, 500 µM [4]: 391 µM (≈ 113 µg/mL)
- logD at 1.5 h [5]: 2.69
- pKi [1]: 8.32
- Papp at 4 h [7]: 127 ×10⁻⁶ cm/s
- log(permeability) [8]: -3.9
- log(Kinetic_solubility) [9]: -4.09
- solubility kinetic at 1.5 h, 500 µM [9]: 82.1 µM (≈ 23.8 µg/mL)
- log(Kinetic_solubility) [12]: -4.03
SMILES: O=C(Nc1ccc2[nH]ccc2n1)c1ccc(Cl)c(F)c1
- Ratio IC50 [6]: 1.1
- Ratio IC50 [11]: > 917

- pIC50 [2]: < 5.00
- pIC50 [14]: 6.24
- pKi [1]: 7.27
- pIC50 [13]: < 5.00
- pIC50 [17]: 6.92
SMILES: O=C(Nc1cc2cc[nH]c2cn1)c1ccc(Cl)c(F)c1
- Ratio IC50 [6]: 1.1
- Ratio IC50 [11]: > 82

SMILES: O=C(Nc1ccc2[nH]ccc2n1)c1ccc(Cl)c(Cl)c1
- pIC50 [2]: < 5.00
- solubility kinetic at 1.5 h, 500 µM [3]: 39.8 µM (≈ 12.2 µg/mL)
- log(Kinetic_solubility) [4]: -3.33
- solubility kinetic at 1.5 h, 500 µM [4]: 471 µM (≈ 144 µg/mL)
- logD at 1.5 h [5]: 3.19
- Activity [18]: Active
- Efficacy [19]: 31%
- Activity [20]: inactive
- Papp at 4 h [7]: 107 ×10⁻⁶ cm/s
- log(permeability) [8]: -3.97
- log(Kinetic_solubility) [9]: -4.37
- solubility kinetic at 1.5 h, 500 µM [9]: 42.9 µM (≈ 13.1 µg/mL)
- Activity [21]: Active
- Activity [22]: Active
- Efficacy [23]: 11%
- log(Kinetic_solubility) [12]: -4.4
- Activity [24]: Active
